Results: patent US7601850B2, “Phenyl-thiophene type vitamin D receptor modulators” (Eli Lilly and Company, priority 2002, dated 2009)
Read-outs that look alike come from different tables or passages of the source.

Experiments:
rat osteocalcin promoter = experiment: OCN (osteocalcin) promoter assay in RG-15 (ROS 17/2.8) cells; format: cell-based
Outline: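 Rat osteoblast-like RG-15 (ROS 17/2.8) cells stably carry the rat osteocalcin promoter fused to luciferase. They were treated with compounds for 48 h in medium with 2% FBS and 0.01% DMSO. EC50 was derived from luciferase activity in cell lysates.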

[1] = Mouse hypercalcemia assay (six day, serum ionized calcium); format: in vivo
Method: 5. The Mouse Hypercalcemia test is described in the “Assay” section of the Description, infra.
4. The Mouse Hypercalcemia Assay
The Mouse Hypercalcemia Assay is a six day hypercalcemia test for toxicity and selectivity. Acceptable test results are levels greater than 300 μg/kg/day. Preferred assay results are levels greater than 1000 μg/kg/day.
(4) Materials and Method for The Mouse Hypercalcemia Assay:
Weanling, virus-antibody-free, five to six weeks old female DBF mice (Harlan, Indianapolis, Ind.) are used for all the studies. Animals are allowed to acclimate to local vivarium conditions for 2 days. […] The animals then are divided into groups with 4-5 mice per group. Different doses of test compounds prepared in 10% Ethanol and 90% sesame oil are administered to mice orally via gavage for 6 days. 1α-25(OH)2D3 0.5 μg/kg/d was also given to one group of mice as the positive control. Serum ionized calcium is evaluated at 6 hours after the last dosing under isoflurane anesthesia by Ciba-Corning Ca++/PH Analyzer, (Model 634, Chiron Diagnostics Corp., East Walpole, Mass.). Raw data of group differences is assessed by analysis of variance (ANOVA) using Fisher's protected least significant difference (PLSD) where the significance level was P<0.05.

KERtr cells = experiment: Keratinocyte proliferation assay (BrdU incorporation); format: cell-based; details: KERtr human skin keratinocytes, 72 hr treatment, read-out: Kera. Prolif. IC50
Method: 6. The keratinocyte proliferation assay is described in the “Assay” section of the Description, infra.
5. The Keratinocyte Proliferation Assay
This Assay is indicative for the treatment of psoriasis.
(5) The Keratinocyte Proliferation Assay:
KERtr cells (Human skin keratinocyte transformed with a retrovirus vector, obtained from ATCC) were plated in 96-well flat-bottomed plates (3000 cells/well) in 100 µl keratinocyte serum free medium supplemented with bovine pituitary extract in the absence of EGF (Life Technologies, Rockville, Md.) and incubated at 37° C. for two days. The cells were treated with various concentrations of VDR ligands (ten-fold serial dilution from 10,000 nM to 0.1 nM in triplicate), dissolved in 100 µl keratinocyte serum free medium supplemented with bovine pituitary extract in the absence of EGF and incubated at 37° C. for 72 hr. […] Potency values (IC50) values were determined as the concentration (nM) of compound that elicited a half-maximal response.

[2] = Homo sapiens, Keratinocyte, 72 h

Row | Structure (SMILES) | EC50 (rat osteocalcin promoter) [µM] | Mouse Hypercal [1] [µg/kg/day] | IC50 (KERtr cells; [2]) [µM] | EC50 (rat osteocalcin promoter; Rattus norvegicus) [µM] | IC50 (KERtr cells) [µM] | Mouse Hypercal μg/Kg/d [1]
1 | CCC(CC)(c1ccc(OCC(=O)O)c(C)c1)c1cc(C)c(CCC(O)C(C)(C)C)s1 (single isomer, unassigned) [Ex. 33B, 3′-[5-(3-hydroxy-4,4-dimethylpentyl)-4-methylthiophen-2-yl]-3′-[4-(carboxylmethoxy)-3-methylphenyl]pentane] | 0.00755 | 1000 | 0.0225 | – | – | –
2 | CCC(CC)(c1ccc(OCC(=O)Nc2nnn[nH]2)c(C)c1)c1cc(C)c(CCC(O)C(C)(C)C)s1 (single isomer, unassigned) [Ex. 35, 3′-[5-(3-hydroxy-4,4-dimethylpentyl)-4-methylthiophen-2-yl]-3′-[4-(tetrazol-5-yl-aminocarbonylmethoxy)-3-methylphenyl]pentane] | 0.0211 | 3000 | 0.474 | – | – | –
3 | CCC(CC)(c1ccc(OCC(O)C(C)(C)C)c(C)c1)c1cc(C)c(C(=O)NC(C)(C)C(=O)O)s1 (single isomer, unassigned) [Ex. 71, 2-[(5-{1-Ethyl-1-[4-(2-hydroxy-3,3-dimethyl-butoxy)-3-methyl-phenyl]-propyl}-3-methyl-thiophene-2-carbonyl)-amino]-2-methyl-propionic acid] | – | <300 | – | 0.0035 | 0.029 | –
4 | CCC(CC)(c1ccc(OCC(O)C(C)(C)C)c(C)c1)c1cc(C)c(C(=O)NC(C)(C)C(=O)O)s1 (single isomer, unassigned) [Ex. 77, 2-[(5-{1-Ethyl-1-[4-(2-hydroxy-3,3-dimethyl-butoxy)-3-methyl-phenyl]-propyl}-3-methyl-thiophene-2-carbonyl)-amino]-2-methyl-propionic acid] | 0.002 | 300 | – | – | 0.194 | –
5 | CCC(CC)(c1ccc(OCC(O)C(C)(C)C)c(C(C)C)c1)c1ccc(C(=O)O)s1 (single isomer, unassigned) [Ex. 97, 3′-[4-(2-hydroxy-3,3-dimethylbutoxy)-3-i-propylphenyl]-3′-[5-carboxy-thiophen-2-yl]pentane] | – | 3000 | – | 0.0225 | – | –
6 | CCC(CC)(c1ccc(OCC(O)C(C)(C)C)c(C(C)C)c1)c1ccc(C(=O)O)s1 (single isomer, unassigned) [Ex. 98, 3′-[4-(2-hydroxy-3,3-dimethylbutoxy)-3-i-propylphenyl]-3′-[5-carboxy-thiophen-2-yl]pentane] | 0.0158 | 4000 | – | – | – | –
7 | CCc1cc(C(CC)(CC)c2ccc(C(=O)O)s2)ccc1OCC(O)C(C)(C)C (single isomer, unassigned) [Ex. 100, 3′-[4-(2-hydroxy-3,3-dimethylbutoxy)-3-ethylphenyl]-3′-[5-carboxy-thiophen-2-yl]pentane] | 0.00563 | 3000 | 0.215 | – | – | –
8 | CCC(CC)(c1ccc(OCC(C)(O)C(C)(C)C)c(C)c1)c1ccc(C(=O)O)s1 (single isomer, unassigned) [Ex. 104, 3′-[4-(2-hydroxy-2,3,3-trimethylbutoxy)-3-methylphenyl]-3′-[5-carboxy-thiophen-2-yl]pentane] | 0.0909 | 1000 | – | – | – | –
9 | CCC(CC)(c1ccc(OCC(C)(O)C(C)(C)C)c(C)c1)c1ccc(C(=O)NCC(=O)O)s1 (single isomer, unassigned) [Ex. 106, 3′-[4-(2-hydroxy-2,3,3-trimethylbutoxy)-3-methylphenyl]-3′-[5-(carboxymethylamino)carbonyl-thiophen-2-yl]pentane] | – | – | 0.013 | 0.00805 | – | >=1000 μg/Kg/d
10 | CCCc1cc(C(CC)(CC)c2ccc(C(=O)N[C@@H](C)C(=O)O)s2)ccc1OCC(C)(O)C(C)(C)C (single isomer, unassigned) [Ex. 114, d-3′-[4-(2-hydroxy-2,3,3-trimethylbutoxy)-3-n-propylphenyl]-3′-[5-(carboxy-1-ethylamino)carbonyl-thiophen-2-yl]pentane] | – | <300 | – | 0.00028 | – | –
11 | CCC(CC)(c1ccc(OCC(C)(O)C(C)(C)C)c(OC)c1)c1ccc(C(=O)NC(C)C(=O)O)s1 (single isomer, unassigned) [Ex. 116, d-3′-[4-(2-hydroxy-2,3,3-trimethylbutoxy)-3-methoxyphenyl]-3′-[5-(carboxy-1-ethylamino)carbonyl-thiophen-2-yl]pentane] | – | >3000 | – | 0.0169 | – | –
12 | CCC(CC)(c1ccc(OCC(=O)C(C)(C)C)c(C)c1)c1ccc(OCC(=O)C(C)(C)C)c(C)c1 [DD, reference compound] | – | 1000 | 1.06 | 0.0311 | – | –
13 | CCC(CC)(c1ccc(OCC(=O)C(C)(C)C)c(C)c1)c1cc(C)c(C(=O)N(C)OC)s1 [Ex. 45, 5-{1-[4-(3,3-dimethyl-2-oxo-butyoxy)-3-methyl-phenyl]-1-ethyl-propyl}-3methyl-thiophene-2-carboxylic acid methoxy-methyl-amide] | – | >1500 | – | 0.041 | – | –
14 | CCC(CC)(c1ccc(OCC(=O)C(C)(C)C)c(C)c1)c1cc(C)c(C(=O)NCC(=O)O)s1 [Ex. 50] | – | >3000 | – | 0.0216 | – | –
15 | CCC(CC)(c1ccc(OCC(O)C(C)(C)C)c(C)c1)c1cc(C)c(C(=O)N[C@@H](C)C(=O)O)s1 (stereo partly drawn) [Ex. 55, L-2-[(5-{1-Ethyl-1-[4-(2-hydroxy-3,3-dimethyl-butoxy)-3-methyl-phenyl]-propyl}-3-methyl-thiophene-2-carbonyl)-amino]-propionic acid] | 0.0296 | 1000 | – | – | 0.0001 | –
16 | CCC(CC)(c1ccc(OCC(O)C(C)(C)C)c(C)c1)c1cc(C)c(C(=O)N[C@H](C)C(=O)O)s1 (stereo partly drawn) [Ex. 67, D-2-[(5-{1-Ethyl-1-[4-(2-hydroxy-3,3-dimethyl-butoxy)-3-methyl-phenyl]-propyl}-3-methyl-thiophene-2-carbonyl)-amino]-propionic acid] | 0.0194 | 3000 | 0.197 | – | – | –
17 | CCC(CC)(c1ccc(OCC(O)C(C)(C)C)c(C(C)C)c1)c1ccc(C(=O)O)s1 (centres unmarked) [Ex. 92, 3′-[4-(2-Hydroxy-3,3-dimethylbutoxy)-3-(1-methylethyl)phenyl]-3′-[5-carboxy-thiophen-2-yl]pentane] | – | 1000 | – | 0.0754 | – | –
18 | CCCc1cc(C(CC)(CC)c2ccc(C(=O)O)s2)ccc1OCC(O)C(C)(C)C (centres unmarked) [Ex. 93, 3′-[4-(2-hydroxy-3,3-dimethylbutoxy)-3-n-propylphenyl]-3′-[5-carboxy-thiophen-2-yl]pentane] | – | 3000 | 0.178 | 0.0385 | – | –
19 | CCc1cc(C(CC)(CC)c2ccc(C(=O)O)s2)ccc1OCC(O)C(C)(C)C (centres unmarked) [Ex. 99, 3′-[4-(2-hydroxy-3,3-dimethylbutoxy)-3-ethylphenyl]-3′-[5-carboxy-thiophen-2-yl]pentane] | – | >1000 | – | 0.0381 | – | –
20 | CCC(CC)(c1ccc(OCC(C)(O)C(C)(C)C)c(C)c1)c1ccc(C(=O)O)s1 (centres unmarked) [Ex. 103, 3′-[4-(2-hydroxy-2,3,3-trimethylbutoxy)-3-methylphenyl]-3′-[5-carboxy-thiophen-2-yl]pentane] | – | 3000 | – | 0.102 | – | –
